Results as given in patent US20070112000A1, “Chemical compounds” (AstraZeneca R&D Alderley, priority 2003, published 2007).

Molecular target: T1, human 11βHSD1 enzyme (Homo sapiens, UniProt P28845)
T1 construct: stably transfected with a construct containing fill-length human 11βHSD1 enzyme (in pCMVHyg); expressed in transfected cells; host or cells: HeLa cells (human cervical carcinoma) stably carrying the GRE4-β-galactosidase reporter and 11βHSD1 in pCMVHyg
Test: HeLa GRE4-βGal/11βHSD1 cell reporter assay (cortisone to cortisol conversion, β-galactosidase readout)
Type: cell-based
Conditions: HeLa GRE4-βGal/11βHSD1 cells, cortisone 1 μM, overnight incubation
Excerpt: HeLa cells (human cervical carcinoma derived cells) were stably transfected with a construct containing four copies of the glucocorticoid response element (GRE) linked to a beta-galactosidase reporter gene (3 kb lac Z gene derived from pSV-B-galactosidase). These cells were then further stably transfected with a construct containing fill-length human 11βHSD1 enzyme (in pCMVHyg) to create GRE4-βGal/11βHSD1 cells. The principal of the assay is as follows. Cortisone is freely taken up by the cells and is converted to cortisol by 11βHSD1 oxo-reductase activity and cortisol (but not cortisone) binds to and activates the glucocorticoid receptor. Activated glucocorticoid receptor then binds to the GRE and initiates transcription and translation of β-galactosidase. Enzyme activity can then be assayed with high sensitivity by colourimetric assay.
Cells were routinely cultured in DMEM (Invitrogen, Paisley, Renfrewshire, UK) containing 10% foetal calf serum (LabTech), 1% glutamine (Invitrogen), 1% penicillin & streptomycin (Invitrogen), 0.5 mg/ml G418 (Invitrogen) & 0.5 mg/ml hygromycin (Boehringer). Assay media was phenol red free-DMEM containing 1% glutamine, 1% penicillin & streptomycin.
Compounds (1 mM) to be tested were dissolved in dimethyl sulphoxide (DMSO) and serially diluted into assay media containing […]. […]
A cocktail (25 μl) consisting of 10× Z-buffer (600 mM Na2HPO4, 400 mM NaH2PO4.2H2O, 100 mM KCl, 10 mM MgSO4.7H2O, 500 mM, β-mercaptoethanol, pH 7.0), SDS (0.2%), chlorophenol red-β-D-galactopyranoside (5 mM, Roche Diagnostics) was added per well and plates incubated at 37° C. for 34 hours. β-Galactosidase activity was indicated by a yellow to red colour change (absorbance at 570 nm) measured using a Tecan Spectrafluor Ultra.
The calculation of median inhibitory concentration (IC50) values for the inhibitors was performed using Origin 6.0 (Microcal Software, Northampton Mass. USA). Dose response curves for each inhibitor were plotted as OD units at each inhibitor concentration with relation to a maximum signal (cortisone, no compound) and IC50 values calculated. […]

T1 sequence (P28845 whole entry): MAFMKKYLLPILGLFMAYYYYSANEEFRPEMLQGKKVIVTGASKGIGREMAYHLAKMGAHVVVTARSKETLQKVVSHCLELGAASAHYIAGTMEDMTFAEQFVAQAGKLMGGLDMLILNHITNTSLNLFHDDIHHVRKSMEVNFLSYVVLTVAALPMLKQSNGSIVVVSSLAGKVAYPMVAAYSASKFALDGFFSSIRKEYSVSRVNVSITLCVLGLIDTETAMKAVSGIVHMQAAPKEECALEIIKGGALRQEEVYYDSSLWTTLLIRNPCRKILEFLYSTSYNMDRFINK

In the case of `CC(C)S(=O)(=O)N1CCCC(C(=O)c2ccc(F)cc2)C1` (stereo not drawn) [Example 13], the IC50 is reported as 0.01 µM.
`O=C(c1ccc(F)cc1)C1CCCN(C(=O)Cc2ccc(F)cc2)C1` (stereo not drawn) [Example 17] gave an IC50 of 0.083 µM.
Work on `O=C(c1ccc(F)cc1)C1CCCN(C(=O)c2ccc(Cl)s2)C1` (stereo not drawn) [Example 18] yielded an IC50 of 0.206 µM.
